Measured values reported in ChEMBL document CHEMBL1671653, “GT-1a or GT-1b subtype-specific resistance profiles for hepatitis C virus inhibitors telaprevir and HCV-796” (Antimicrob Agents Chemother, 2009).

Experiments:
Assay type in all cases: functional, organism-based, Hepacivirus hominis
Hepatitis C virus [1] = assay: Antiviral activity against Hepatitis C virus GT-1a harboring NS5B polymerase C316Y/L392F mutant gene
Hepatitis C virus [2] = assay: Antiviral activity against Hepatitis C virus GT-1a harboring NS5B polymerase L392F/M414T mutant gene
Hepatitis C virus [3] = assay: Antiviral activity against Hepatitis C virus GT-1b harboring NS5B polymerase C316Y mutant gene relative to wild type
Hepatitis C virus [4] = assay: Antiviral activity against Hepatitis C virus GT-1a harboring NS5B polymerase C316Y/M414T mutant gene
Hepatitis C virus [5] = assay: Antiviral activity against Hepatitis C virus GT-1b harboring wild type NS5B polymerase
Hepatitis C virus [6] = assay: Antiviral activity against Hepatitis C virus GT-1a harboring NS5B polymerase L392F mutant gene
Hepatitis C virus [7] = assay: Antiviral activity against Hepatitis C virus GT-1a harboring wild type NS5B polymerase
Hepatitis C virus [8] = assay: Antiviral activity against Hepatitis C virus GT-1a harboring NS5B polymerase C316Y mutant gene
Hepatitis C virus [9] = assay: Antiviral activity against Hepatitis C virus GT-1b assessed as inhibition of HCV replicon-encoded Renilla luciferase reporter activity after 3 days; conditions: 72 h
Hepatitis C virus [10] = assay: Antiviral activity against Hepatitis C virus GT-1a harboring NS5B polymerase M414T mutant gene
Hepatitis C virus [11] = assay: Antiviral activity against Hepatitis C virus GT-1a assessed as inhibition of HCV replicon-encoded Renilla luciferase reporter activity after 3 days; conditions: 72 h

EC50 (Hepatitis C virus [11]) [nM]	Structure (SMILES)	EC50 (Hepatitis C virus [1]) [nM]	EC50 (Hepatitis C virus [2]) [nM]	EC50 (Hepatitis C virus [3]) [nM]	EC50 (Hepatitis C virus [4]) [nM]	EC50 (Hepatitis C virus [5]) [nM]	EC50 (Hepatitis C virus [6]) [nM]	EC50 (Hepatitis C virus [7]) [nM]	EC50 (Hepatitis C virus [8]) [nM]	EC50 (Hepatitis C virus [9]) [nM]	EC50 (Hepatitis C virus [10]) [nM]
–	CNC(=O)c1c(-c2ccc(F)cc2)oc2cc(N(CCO)S(C)(=O)=O)c(C3CC3)cc12 [NESBUVIR]	3200	22	6	2800	6	8	4	1700	17	7
500	CCC[C@H](NC(=O)[C@@H]1[C@H]2CCC[C@H]2CN1C(=O)[C@@H](NC(=O)[C@@H](NC(=O)c1cnccn1)C1CCCCC1)C(C)(C)C)C(=O)C(=O)NC1CC1 [TELAPREVIR]	–	–	–	–	–	–	–	–	560	–
